Earlier results in patent US10221122B2, “Enantiospecific process for the preparation of (R) and (S) enantiomers of sex pheromonoes of the long tailed mealy bug” (Council of Scientific & Industrial Research, priority 2015, dated 2019).
Read-outs that look alike come from different tables or passages of the source.

How the values were obtained:
[1] = test system: male mealybugs; settings: field trials; J. Org. Chem. 2013, 78, 6281-6284
[2] = test system: male mealybugs; settings: attraction lasting three months; reported by Miller group
[3] = test system: males of the American cockroach; settings: Agric. Biol. Chem. 1979, 43(9), 1967-1974
[4] = test system: American cockroach; settings: J. Chem. Ecol. 1983, 9(3), 433-48

SMILES	attractiveness to male mealybugs [1]	sex pheromonal activity ([4]; at 0.05 mg)	other results
CC(=O)OCC[C@@]1(C)C=CCC1(C)C [(S)-(+)-enantiomer, 2-[(1S)-1,5,5-trimethylcyclopent-2-en-1-yl]ethyl acetate]	highly attractive	–	–
CC(=O)OCCC1(C)C=CCC1(C)C (racemic) [racemic form of the pheromone]	–	–	amount sufficient to attract male mealybugs [2]: 25 µg
CC(=O)OC1CC2CCC1(C)C2(C)C (single isomer, unassigned; (+)) [(+)-bornyl acetate]	–	showed the activity	excitation of males showing the typical sexual response [3]: excite males of the American cockroach
CCC(=O)OC1CC2CCC1(C)C2(C)C (stereo not shown) [Ic]	–	showed the activity	–
CC(=O)OCC[C@]1(C)C=CCC1(C)C [(R)-(−)-enantiomer, 2-[(1R)-1,5,5-trimethylcyclopent-2-en-1-yl]ethyl acetate]	neither attractive nor inhibitory	–	–
CCC(=O)OC1CC2CCC1(C)C2(C)C (single isomer, unassigned; (-)) [(−)-bornyl propionate]	–	–	sex pheromonal activity ([4]; at 0.5 mg dose): weak activity
